Converted amounts (≈) assume the structure as drawn. Starred links: 1 amine or outer side, 2 acyl side, 3 side chain; linkers in the order of their positions; H or OH if unused. Non-standard residues stand in square brackets, D forms with d. Residues, ends and D or L forms follow the SMILES beside them. ξ: configuration not given here. *: point of attachment. Pro(3ξ,4ξ-(CH2)4) = O=C(O)[C@H]1NCC2CCCCC21; Oic = O=C(O)[C@@H]1C[C@@H]2CCCC[C@@H]2N1; Phe(4-F) = N[C@@H](Cc1ccc(F)cc1)C(=O)O; X1 = O=C([C@H]1C2CCCCC2CN1[*:1])[*:2]; Ethylenediamine = C(CN[*:2])N[*:1]; Tic = O=C(O)[C@@H]1Cc2ccccc2CN1; dTic = O=C(O)[C@H]1Cc2ccccc2CN1; ξTic = O=C(O)C1Cc2ccccc2CN1; dOrn = NCCC[C@@H](N)C(=O)O; Orn = NCCC[C@H](N)C(=O)O; NH(CH2)3NH2 = NCCCN*; Ahx = NCCCCCC(=O)O; GABA = NCCCC(=O)O; βAla = NCCC(=O)O
How the values were obtained:
Staphylococcus aureus = assay: Antibacterial activity against Staphylococcus aureus; type: functional
[1] = system: Mycolicibacterium fortuitum; assay: Antibacterial activity against Mycobacterium ranae; type: functional

Structure (SMILES)	MIC (Staphylococcus aureus)	MIC [1]
CC(=O)N[C@@H](Cc1ccccc1)C(=O)N1Cc2ccccc2C[C@H]1C(=O)N1CC2CCCCC2[C@H]1C(=O)N[C@@H](CCCCN)C(=O)N1Cc2ccccc2C[C@H]1C(=O)N1CC2CCCCC2[C@H]1C(=O)N[C@@H](Cc1ccccc1)C(=O)N1Cc2ccccc2C[C@H]1C(=O)N1CC2CCCCC2[C@H]1C(=O)N[C@@H](CCCCN)C(=O)N1Cc2ccccc2C[C@H]1C(=O)N[C@@H](CCCCN)C(=O)N[C@@H](CCCCN)C(=O)N[C@@H](CCCCN)C(=O)N[C@@H](CCCCN)C(=O)N[C@@H](CCCCN)C(=O)N[C@@H](CCCCN)C(N)=O (stereo partly specified) (Ac-F[Tic][Pro(3ξ,4ξ-(CH2)4)]K[Tic][Pro(3ξ,4ξ-(CH2)4)]F[Tic][Pro(3ξ,4ξ-(CH2)4)]K[Tic]KKKKKK-NH2)	3 µM (≈ 7.41 µg/mL)	3 µM (≈ 7.41 µg/mL)
CC(=O)NCC(=O)N[C@@H](Cc1ccccc1)C(=O)N1Cc2ccccc2C[C@H]1C(=O)N1[C@H](C(=O)NCC(=O)N[C@@H](CCCCN)C(=O)N2Cc3ccccc3C[C@H]2C(=O)N2[C@H](C(=O)NCC(=O)N[C@@H](Cc3ccccc3)C(=O)N3Cc4ccccc4C[C@H]3C(=O)N3[C@H](C(=O)NCC(=O)N[C@@H](CCCCN)C(=O)N4Cc5ccccc5C[C@H]4C(=O)N[C@@H](CCCCN)C(=O)N[C@@H](CCCCN)C(=O)N[C@@H](CCCCN)C(=O)N[C@@H](CCCCN)C(=O)NCCN)C[C@@H]4CCCC[C@@H]43)C[C@@H]3CCCC[C@@H]32)C[C@@H]2CCCC[C@@H]21 (Ac-GF[Tic][Oic]GK[Tic][Oic]GF[Tic][Oic]GK[Tic]KKKK-Ethylenediamine)	3 µM (≈ 7.45 µg/mL)	10 µM (≈ 24.8 µg/mL)
CC(=O)NCC(=O)N[C@@H](Cc1ccccc1)C(=O)N1Cc2ccccc2C[C@H]1C(=O)N1[C@H](C(=O)NCC(=O)N[C@@H](CCCCN)C(=O)N2Cc3ccccc3C[C@H]2C(=O)N2[C@H](C(=O)NCC(=O)N[C@@H](Cc3ccccc3)C(=O)N3Cc4ccccc4C[C@H]3C(=O)N3[C@H](C(=O)NCC(=O)N[C@@H](CCCCN)C(=O)N4Cc5ccccc5C[C@H]4C(=O)N[C@@H](CCCCN)C(=O)N[C@@H](CCCCN)C(=O)N[C@@H](CCCCN)C(=O)N[C@@H](CCCCN)C(=O)NCCCN)C[C@@H]4CCCC[C@@H]43)C[C@@H]3CCCC[C@@H]32)C[C@@H]2CCCC[C@@H]21 (Ac-GF[Tic][Oic]GK[Tic][Oic]GF[Tic][Oic]GK[Tic]KKKK-{NH(CH2)3NH2})	10 µM (≈ 25 µg/mL)	10 µM (≈ 25 µg/mL)
CC(=O)NCC(=O)N[C@@H](Cc1ccccc1)C(=O)N1Cc2ccccc2C[C@H]1C(=O)N1CC2CCCCC2[C@H]1C(=O)NCC(=O)N[C@@H](CCCCN)C(=O)N1Cc2ccccc2C[C@H]1C(=O)N1CC2CCCCC2[C@H]1C(=O)NCC(=O)N[C@@H](Cc1ccccc1)C(=O)N1Cc2ccccc2C[C@H]1C(=O)N1CC2CCCCC2[C@H]1C(=O)NCC(=O)N[C@@H](CCCCN)C(=O)N1Cc2ccccc2C[C@H]1C(=O)N[C@@H](CCCCN)C(=O)N[C@@H](CCCCN)C(=O)N[C@@H](CCCCN)C(=O)N[C@@H](CCCCN)C(N)=O (stereo partly specified) (Ac-GF[Tic][Pro(3ξ,4ξ-(CH2)4)]GK[Tic][Pro(3ξ,4ξ-(CH2)4)]GF[Tic][Pro(3ξ,4ξ-(CH2)4)]GK[Tic]KKKK-NH2)	3 µM (≈ 7.32 µg/mL)	10 µM (≈ 24.4 µg/mL)
CC(=O)NCC(=O)N[C@@H](Cc1ccccc1)C(=O)N1Cc2ccccc2C[C@H]1C(=O)N1CC2CCCCC2[C@H]1C(=O)NCC(=O)N[C@@H](CCCCN)C(=O)N1Cc2ccccc2C[C@H]1C(=O)N1CC2CCCCC2[C@H]1C(=O)NCC(=O)N[C@@H](Cc1ccccc1)C(=O)N1Cc2ccccc2C[C@H]1C(=O)N1CC2CCCCC2[C@H]1C(=O)NCC(=O)N[C@@H](CCCCN)C(=O)N1Cc2ccccc2C[C@H]1C(=O)N[C@@H](CCCCN)C(=O)N[C@@H](CCCCN)C(=O)N[C@@H](CCCCN)C(=O)N[C@@H](CCCCN)C(=O)N[C@@H](CCCCN)C(N)=O (stereo partly specified) (Ac-GF[Tic][Pro(3ξ,4ξ-(CH2)4)]GK[Tic][Pro(3ξ,4ξ-(CH2)4)]GF[Tic][Pro(3ξ,4ξ-(CH2)4)]GK[Tic]KKKKK-NH2)	3 µM (≈ 7.71 µg/mL)	3 µM (≈ 7.71 µg/mL)
CC(=O)NCC(=O)N[C@@H](Cc1ccccc1)C(=O)N1Cc2ccccc2C[C@H]1C(=O)N1CC2CCCCC2[C@H]1C(=O)NCC(=O)N[C@@H](CCCCN)C(=O)N1Cc2ccccc2C[C@H]1C(=O)N1CC2CCCCC2[C@H]1C(=O)NCC(=O)N[C@@H](Cc1ccccc1)C(=O)N1Cc2ccccc2C[C@H]1C(=O)N1CC2CCCCC2[C@H]1C(=O)NCC(=O)N[C@@H](CCCCN)C(=O)N1Cc2ccccc2C[C@H]1C(=O)N[C@@H](CCCN)C(=O)N[C@@H](CCCN)C(=O)N[C@@H](CCCN)C(=O)N[C@@H](CCCN)C(N)=O (stereo partly specified) (Ac-GF[Tic][Pro(3ξ,4ξ-(CH2)4)]GK[Tic][Pro(3ξ,4ξ-(CH2)4)]GF[Tic][Pro(3ξ,4ξ-(CH2)4)]GK[Tic][Orn][Orn][Orn][Orn]-NH2)	10 µM (≈ 23.8 µg/mL)	10 µM (≈ 23.8 µg/mL)
CC(=O)NCC(=O)N[C@@H](Cc1ccccc1)C(=O)N1Cc2ccccc2C[C@H]1C(=O)N1CC2CCCCC2[C@@H]1C(=O)NCC(=O)N[C@H](CCCN)C(=O)N1Cc2ccccc2C[C@@H]1C(=O)N1CC2CCCCC2[C@H]1C(=O)NCC(=O)N[C@H](Cc1ccccc1)C(=O)N1Cc2ccccc2C[C@@H]1C(=O)N1CC2CCCCC2[C@@H]1C(=O)NCC(=O)N[C@H](CCCN)C(=O)N1Cc2ccccc2C[C@@H]1C(=O)N[C@H](CCCN)C(=O)N[C@H](CCCN)C(=O)N[C@H](CCCN)C(=O)N[C@H](CCCN)C(N)=O (stereo partly specified) (Ac-GF[Tic][X1]G[dOrn][dTic][Pro(3ξ,4ξ-(CH2)4)]G[dF][dTic][X1]G[dOrn][dTic][dOrn][dOrn][dOrn][dOrn]-NH2)	3 µM (≈ 7.07 µg/mL)	10 µM (≈ 23.6 µg/mL)
CC(=O)NCC(=O)N[C@@H](Cc1ccc(F)cc1)C(=O)N1Cc2ccccc2C[C@H]1C(=O)N1CC2CCCCC2[C@H]1C(=O)NCC(=O)N[C@@H](CCCCN)C(=O)N1Cc2ccccc2C[C@H]1C(=O)N1CC2CCCCC2[C@H]1C(=O)NCC(=O)N[C@@H](Cc1ccc(F)cc1)C(=O)N1Cc2ccccc2C[C@H]1C(=O)N1CC2CCCCC2[C@H]1C(=O)NCC(=O)N[C@@H](CCCCN)C(=O)N1Cc2ccccc2C[C@H]1C(=O)N[C@@H](CCCCN)C(=O)N[C@@H](CCCCN)C(=O)N[C@@H](CCCCN)C(=O)N[C@@H](CCCCN)C(N)=O (stereo partly specified) (Ac-G[Phe(4-F)][Tic][Pro(3ξ,4ξ-(CH2)4)]GK[Tic][Pro(3ξ,4ξ-(CH2)4)]G[Phe(4-F)][Tic][Pro(3ξ,4ξ-(CH2)4)]GK[Tic]KKKK-NH2)	10 µM (≈ 24.8 µg/mL)	3 µM (≈ 7.43 µg/mL)
CC(=O)NCC(=O)N1Cc2ccccc2C[C@H]1C(=O)N1CC2CCCCC2[C@H]1C(=O)N[C@@H](CCCCN)C(=O)N1Cc2ccccc2C[C@H]1C(=O)N1CC2CCCCC2[C@H]1C(=O)NCC(=O)N1Cc2ccccc2CC1C(=O)N1CC2CCCCC2[C@H]1C(=O)N[C@@H](CCCCN)C(=O)N1Cc2ccccc2C[C@H]1C(=O)N[C@@H](CCCCN)C(=O)N[C@@H](CCCCN)C(=O)N[C@@H](CCCCN)C(=O)N[C@@H](CCCCN)C(N)=O (stereo partly specified) (Ac-G[Tic][Pro(3ξ,4ξ-(CH2)4)]K[Tic][Pro(3ξ,4ξ-(CH2)4)]G[ξTic][Pro(3ξ,4ξ-(CH2)4)]K[Tic]KKKK-NH2)	10 µM (≈ 20.3 µg/mL)	3 µM (≈ 6.1 µg/mL)
CC(=O)NCCCCCC(=O)N[C@@H](Cc1ccccc1)C(=O)N1Cc2ccccc2C[C@H]1C(=O)N1CC2CCCCC2[C@H]1C(=O)NCCCCCC(=O)N[C@@H](CCCCN)C(=O)N1Cc2ccccc2C[C@H]1C(=O)N1CC2CCCCC2[C@H]1C(=O)NCCCCCC(=O)N[C@@H](Cc1ccccc1)C(=O)N1Cc2ccccc2C[C@H]1C(=O)N1CC2CCCCC2[C@H]1C(=O)NCCCCCC(=O)N[C@@H](CCCCN)C(=O)N1Cc2ccccc2C[C@H]1C(=O)N[C@@H](CCCCN)C(=O)N[C@@H](CCCCN)C(=O)N[C@@H](CCCCN)C(=O)N[C@@H](CCCCN)C(N)=O (stereo partly specified) (Ac-[Ahx]F[Tic][Pro(3ξ,4ξ-(CH2)4)][Ahx]K[Tic][Pro(3ξ,4ξ-(CH2)4)][Ahx]F[Tic][Pro(3ξ,4ξ-(CH2)4)][Ahx]K[Tic]KKKK-NH2)	10 µM (≈ 26.7 µg/mL)	3 µM (≈ 8 µg/mL)
CC(=O)NCCCC(=O)N[C@@H](Cc1ccccc1)C(=O)N1Cc2ccccc2C[C@H]1C(=O)N1CC2CCCCC2[C@H]1C(=O)NCCCC(=O)N[C@@H](CCCCN)C(=O)N1Cc2ccccc2C[C@H]1C(=O)N1CC2CCCCC2[C@H]1C(=O)NCCCC(=O)N[C@@H](Cc1ccccc1)C(=O)N1Cc2ccccc2C[C@H]1C(=O)N1CC2CCCCC2[C@H]1C(=O)NCCCC(=O)N[C@@H](CCCCN)C(=O)N1Cc2ccccc2C[C@H]1C(=O)N[C@@H](CCCCN)C(=O)N[C@@H](CCCCN)C(=O)N[C@@H](CCCCN)C(=O)N[C@@H](CCCCN)C(N)=O (stereo partly specified) (Ac-[GABA]F[Tic][Pro(3ξ,4ξ-(CH2)4)][GABA]K[Tic][Pro(3ξ,4ξ-(CH2)4)][GABA]F[Tic][Pro(3ξ,4ξ-(CH2)4)][GABA]K[Tic]KKKK-NH2)	100 µM (≈ 255 µg/mL)	10 µM (≈ 25.5 µg/mL)
CC(=O)NCCCC(=O)N[C@@H](Cc1ccccc1)C(=O)N1Cc2ccccc2C[C@H]1C(=O)N1CC2CCCCC2[C@H]1C(=O)NCCCC(=O)N[C@@H](CCCCN)C(=O)N1Cc2ccccc2C[C@H]1C(=O)N1CC2CCCCC2[C@H]1C(=O)NCCCC(=O)N[C@@H](Cc1ccccc1)C(=O)N1Cc2ccccc2C[C@H]1C(=O)N1CC2CCCCC2[C@H]1C(=O)NCCCC(=O)N[C@@H](CCCCN)C(=O)N1Cc2ccccc2C[C@H]1C(=O)N[C@@H](CCCCN)C(=O)N[C@@H](CCCCN)C(=O)N[C@@H](CCCCN)C(=O)N[C@@H](CCCCN)C(=O)N[C@@H](CCCCN)C(N)=O (stereo partly specified) (Ac-[GABA]F[Tic][Pro(3ξ,4ξ-(CH2)4)][GABA]K[Tic][Pro(3ξ,4ξ-(CH2)4)][GABA]F[Tic][Pro(3ξ,4ξ-(CH2)4)][GABA]K[Tic]KKKKK-NH2)	30 µM (≈ 80.4 µg/mL)	3 µM (≈ 8.04 µg/mL)
CC(=O)NCCC(=O)N[C@@H](Cc1ccccc1)C(=O)N1Cc2ccccc2C[C@H]1C(=O)N1CC2CCCCC2[C@H]1C(=O)NCCC(=O)N[C@@H](CCCCN)C(=O)N1Cc2ccccc2C[C@H]1C(=O)N1CC2CCCCC2[C@H]1C(=O)NCCC(=O)N[C@@H](Cc1ccccc1)C(=O)N1Cc2ccccc2C[C@@H]1C(=O)N1CC2CCCCC2[C@H]1C(=O)NCCC(=O)N[C@@H](CCCCN)C(=O)N1Cc2ccccc2C[C@H]1C(=O)N[C@@H](CCCCN)C(=O)N[C@@H](CCCCN)C(=O)N[C@@H](CCCCN)C(=O)N[C@@H](CCCCN)C(N)=O (stereo partly specified) (Ac-[βAla]F[Tic][Pro(3ξ,4ξ-(CH2)4)][βAla]K[Tic][Pro(3ξ,4ξ-(CH2)4)][βAla]F[dTic][Pro(3ξ,4ξ-(CH2)4)][βAla]K[Tic]KKKK-NH2)	10 µM (≈ 25 µg/mL)	1 µM (≈ 2.5 µg/mL)

From ChEMBL document CHEMBL1138365, “Application of 3D-QSAR for identification of descriptors defining bioactivity of antimicrobial peptides” (2007)
